Experimental data from US10975043B2, “Heterocyclic compound” (TAKEDA PHARMACEUTICAL COMPANY LIMITED, priority 2014, dated 2021).

Legend:
RBP4 [1] = biological target: T1, RBP4 (Homo sapiens, UniProt P02753); conditions: consequently inhibits formation of a complex with TTR; cited from earlier work
RBP4 [2] = conditions: administration to an animal; cited from earlier work
RBP4 [3] = biological target: T2, RBP4 (Mus musculus, UniProt Q00724); test: Blood RBP4-lowering action in C57BL/6J mouse, plasma RBP4 by ELISA; format: in vivo; conditions: mean±SD, n=4 or 5
T2 construct: from tissue; host or cells: plasma of male C57BL/6J mice (Japan Charles River)
Procedure: The blood RBP4-lowering action of the compound of the present invention was evaluated using C57BL/6J mouse.
Male 7- to 10-week-old C57BL/6J mice (Japan Charles River) were acclimation reared under free food ingestion conditions on CE-2 solid feed (CLEA Japan, Inc.) for 4 to 6 days, and randomly grouped (4 or 5 per group). On the day of the test, blood samples were collected from the tail vein, and plasma was separated (0 hr value). Thereafter, a test compound (Example 1, 2, 3, 4, 5, 6, 7 or 8) was orally administered at a dose of 3 mg/kg or 10 mg/kg (solvent: 0.5% methylcellulose solution (10 mL/kg)). At 8 and 24 hr after the compound was administered, blood samples were collected from the tail vein and plasma was separated. A 0.5% methylcellulose solution (10 mL/kg) was orally administered to the control group.
The amount of RBP4 in the collected plasma was measured by the ELISA method. Using rabbit anti-mouse RBP4 polyclonal antibody (Hokudo Co., Ltd.), RBP4 was quantified by the following process. A 96 well ELISA plate was coated with 50 μg/mL antibody (100 μL), and stood at 4° C. overnight or at room temperature for 2 hr. After blocking with BlockAce (Dainippon Pharmaceutical Co., Ltd.), 100 μL of mouse RBP4 or sample was added and the plate was stood at room temperature for 2 hr, washed with PBS-0.5% Tween20, added with HRP-labeled anti-RBP4 antibody (prepared by labeling RBP4 polyclonal antibody (Hokudo Co., Ltd.) with HRP (DOJINDO LABORATORIES)) (100 μL), and stood at room temperature for 1 hr. After washing, TMB (Sigma) was added at room temperature for 20 min to allow for color development. The reaction was quenched with 2N sulfuric acid and the absorbance at A450 nm was measured by a platereader. Variation from the initial value of each individual was taken as the relative value to the control group (initial value/control value, %) at each time point. The results are shown below in mean±standard deviation (n=4 or 5).

[4] = system: A2E in the eyeball of ABCA4 KO mouse; test: Suppression of A2E accumulation in the eyeball of ABCA4 KO mouse, A2E by HPLC; format: in vivo; conditions: 8 or 12 weeks
Procedure: The suppressive action for accumulation of retinoid metabolite bis-retinoid N-retinylidene-N-retinylethanolamine (A2E) in the eyeball, of the compound of the present invention, was evaluated using ATP-binding cassette A4 knockout (ABCA4 KO) mouse. A2E is the major constituent component of Lipofuscin in the eyeball, and is involved in the onset and pathology progression in atrophic age-related macular degeneration and Stargardt's disease. ABCA4 KO mouse was confirmed to show remarkable accumulation of A2E, Lipofuscin along with aging, and is known as an animal model of atrophic age-related macular degeneration and Stargardt's disease.
8-Week-old male ABCA4 KO mice were randomly grouped, and 0.5% methylcellulose solution was orally administered to the control group, and 0.5% methylcellulose suspension of a compound at a dose shown in the following Table was orally administered to the test compound group, each once per day at 10 mL/kg. Each group contained 6 or 7 mice. After repetitive administration for 8 or 12 weeks, eyeball was isolated under anesthesia.
In the eyeball, A2E was measured by the HPLC method. A2E reference standard was synthesized from all-trans retinal, ethanolamine in acetic acid-added ethanol. First, 0.3 mL of PBS and zirconia beads were added to the eyeball, and homogenate was prepared using Mixer Mill MM 300 (QIAGEN). A chloroform:methanol (2:1) solution (0.8 mL) was added and the mixture was stirred for […]. The lower layer was separately taken in a different tube, the chloroform:methanol (2:1) solution (0.6 mL) was further added and the mixture was stirred for 5 min. The lower layer was combined with one separated earlier, and dried to solidness by blowing nitrogen gas. 0.05 mL of 85% acetonitrile solution was added and the mixture was stirred to give a measurement sample. For HPLC, Alliance e2695 and Photo diode array 2998 (PDA) (Waters) were used, and Empower 2 was used as an analysis software. The column used was Atlantis dC18 (3 μm, 3.9×150 mm) (Waters), and the column temperature was set to 40° C. […] Quantification was performed at ultraviolet absorbance at 440 nm by PDA.

RBP4 [5] = biological target: T1, RBP4; test: Binding assay by Retinol-RBP4-TTR ELISA; design: the culture supernatant containing secreted hRBP4-His was recovered; made in house; host or cells: FreeStyle 293 expression system (Invitrogen), secreted into the culture supernatant; conditions: 10 μM compound; retinol 50 nM; His-tagged human RBP4, biotinylated human TTR; read-out: human RBP4 binding inhibitory activity (% at 10 μM)
Procedure: Using the Retinol-RBP4-TTR ELISA system shown below, the action of the compound of the present invention to inhibit the binding of RBP4 and retinol and TTR was evaluated.
1F: Binding Assay by Retinol-RBP4-TTR ELISA
This ELISA system detects a complex with RBP4 and TTR based on the retinol dependent binding of RBP4 to TTR.
The His-tagged human RBP4 used was prepared in the above-mentioned 1C.
The biotinylated human TTR used was prepared in the above-mentioned 1E.
Streptavidin (20 μl) (10 μg/ml Streptavidin type II (Wako Pure Chemical Industries, Ltd.), 10 mM Tris-HCl (pH 7.5), 10 mM NaCl) was added to a 384 well blackplate (Nunc MaxiSorp, Thermo Fisher Scientific Inc.), and the plate was centrifuged (1000 rpm, 1 min) and coated at 4° C. overnight. The plate was washed twice with PBST (PBS, 0.05% Tween 20, 100 μl/well), and blocked with 25% Block Ace (Snow Brand Milk Products Co., Ltd., PBS, 100 μl/well). The plate was subjected to centrifugation (1000 rpm, 1 min), and incubated at room temperature for 4 hr or 4° C. overnight. The plate was washed twice with PBST (PBS, 0.05% Tween 20, 100 μl/well), and biotinylated human TTR (stock solution concentration 1.0 mg/ml) diluted 750-fold with PBST was added at […]. The plate was subjected to centrifugation (1000 rpm, 1 min), and further stood at room temperature for 1.5 hr or 4° C. overnight. The plate was washed 3 times with PBST (100 μl/well), and His-tagged human RBP4 (stock solution concentration 1.28 mg/ml) diluted 4000-fold with a reaction buffer (50 mM Tris-HCl, 150 mM NaCl, 0.005% Tween 20, 1 mM DTT, 0.1% BSA) was added at 10 μl/well. The dilution of the compound (200-fold concentration) was prepared with DMSO, and 1.6 μl each was added to a reaction buffer (320 μl) containing retinol (50 nM) (Sigma-Aldrich Co.). A reaction buffer (320 μl) containing retinol and added with DMSO was used as a positive control, and a reaction buffer (320 μl) not containing retinol and added with DMSO was used as a negative control. A mixed solution of retinol and the compound was added to the plate at 15 μl/well. The plate was stirred in a plate mixer, centrifuged (1000 rpm, 1 min), and reacted at room temperature for 2 hr. Anti-His HRP-conjugated antibody (QIAGEN) solution diluted with a reaction buffer was added at 10 μl/well, centrifuged (1000 rpm, 1 min), and reacted at room temperature for 30 min. The plate was washed 3 times with PBST (100 μl/well), SuperSignal ELISA Femto Maximum Sensitivity Substrate reagent (PIERCE, Thermo Fisher Scientific Inc.) was added at 30 μl/well, and the luminescence was measured by a plate reader (Envision).
The binding inhibitory activity of the compound was determined by 100×(positive control value−test compound value)/(positive control value−negative control value).

CC1=C(/C=C/C(C)=C/C=C/C(C)=C/C(=O)Nc2ccc(O)cc2)C(C)(C)CCC1 [fenretinide, 4-hydroxy(phenyl)retinamide]
binding of RBP4 and retinol (RBP4 [1]): inhibits binding of RBP4 and retinol | blood RBP4 (RBP4 [2]): induces lowering of blood RBP4

O=C(O)COc1nc(-c2cc(C(F)(F)F)cc(C(F)(F)F)c2)co1 [Example 4, ((4-(3,5-bis(trifluoromethyl)phenyl)-1,3-oxazol-2-yl)oxy)acetic acid]
RBP4 (initial value/control value %) 8 hr later (RBP4 [3]; 3 mg/kg single oral dose): 19.86 ± 11.85% | RBP4 (initial value/control value %) 24 hr later (RBP4 [3]; 3 mg/kg single oral dose): 54.29 ± 19.15% | A2E (% of control value) ([4]; 1 mg/kg oral once per day): 79.47 ± 14.53 % of control value | inhibition at 10 µM (RBP4 [5]): 100%

CCOC(=O)COc1cnc(-c2cc(C(F)(F)F)cc(C(F)(F)F)c2)nc1 [Example 6, ethyl 2-((2-(3,5-bis(trifluoromethyl)phenyl)pyrimidin-5-yl)oxy)acetate]
RBP4 (initial value/control value %) 8 hr later (RBP4 [3]; 10 mg/kg single oral dose): 58.17 ± 8.61% | RBP4 (initial value/control value %) 24 hr later (RBP4 [3]; 10 mg/kg single oral dose): 79.70 ± 5.22%

O=C(O)COc1cnc(-c2cc(C(F)(F)F)cc(C(F)(F)F)c2)nc1 [Example 1, ((2-(3,5-bis(trifluoromethyl)phenyl)pyrimidin-5-yl)oxy)acetic acid]
RBP4 (initial value/control value %) 8 hr later (RBP4 [3]; 10 mg/kg single oral dose): 37.25 ± 11.45% | RBP4 (initial value/control value %) 24 hr later (RBP4 [3]; 10 mg/kg single oral dose): 61.81 ± 14.79% | inhibition at 10 µM (RBP4 [5]): 98%

COC(=O)COc1ccc(-c2cc(C(F)(F)F)cc(C(F)(F)F)c2)nc1 [Example 7, methyl 2-((6-(3,5-bis(trifluoromethyl)phenyl)pyridin-3-yl)oxy)acetate]
RBP4 (initial value/control value %) 8 hr later (RBP4 [3]; 10 mg/kg single oral dose): 43.66 ± 4.92% | RBP4 (initial value/control value %) 24 hr later (RBP4 [3]; 10 mg/kg single oral dose): 71.75 ± 8.77%

O=C(O)COc1ccc(-c2cc(C(F)(F)F)cc(C(F)(F)F)c2)nc1 [Example 2, ((6-(3,5-bis(trifluoromethyl)phenyl)pyridin-3-yl)oxy)acetic acid]
RBP4 (initial value/control value %) 8 hr later (RBP4 [3]; 10 mg/kg single oral dose): 23.93 ± 5.84% | RBP4 (initial value/control value %) 24 hr later (RBP4 [3]; 10 mg/kg single oral dose): 64.87 ± 16.79% | A2E (% of control value) ([4]; 10 mg/kg oral once per day): 77.63 ± 9.06 % of control value | inhibition at 10 µM (RBP4 [5]): 99%

O=C(O)COc1ccn(-c2cc(C(F)(F)F)cc(C(F)(F)F)c2)n1 [Example 5, ((1-(3,5-bis(trifluoromethyl)phenyl)-1H-pyrazol-3-yl)oxy)acetic acid]
RBP4 (initial value/control value %) 8 hr later (RBP4 [3]; 3 mg/kg single oral dose): 32.14 ± 6.82% | RBP4 (initial value/control value %) 24 hr later (RBP4 [3]; 3 mg/kg single oral dose): 36.20 ± 1.87% | A2E (% of control value) ([4]; 3 mg/kg oral once per day): 59.10 ± 10.33 % of control value | inhibition at 10 µM (RBP4 [5]): 100%

O=C(O)CCn1ccc(-c2cc(C(F)(F)F)cc(C(F)(F)F)c2)n1 [Example 3, 3-(3-(3,5-bis(trifluoromethyl)phenyl)-1H-pyrazol-1-yl)propanoic acid]
RBP4 (initial value/control value %) 8 hr later (RBP4 [3]; 10 mg/kg single oral dose): 20.70 ± 1.55% | RBP4 (initial value/control value %) 24 hr later (RBP4 [3]; 10 mg/kg single oral dose): 49.64 ± 10.48% | A2E (% of control value) ([4]; 10 mg/kg oral once per day): 73.90 ± 15.58 % of control value | inhibition at 10 µM (RBP4 [5]): 100%
